Read-outs that look alike come from different tables or passages of the source.
Assay: Topical administration (eye drops) of formulation #340, rapamycin levels in blood, cornea, retina choroid, sclera and vitreous (Tables 3-6)
Type: in vivo
Conditions: rabbit, formulation #340 topical; for concentration at 8 day / concentration at 10 day / concentration at 12 day / concentration at 14 day: Group III (two drops once a day on both eyes for 6 days)
Method: Both eyes (or one eye depending on the study) of each animal received one or two drops (40 μl per drop) of the studied formulations using a calibrated pipette on day 0 (day of dosing).
For Tables 3-6, the solution of Example 46 (formulation #340) was administered two drops twice a day on both eyes, one time for Group I, two drops once a day on one eye, one time for Group II, and two drops once a day on both eyes for 6 days in Group III. In Group II, the right eye (OD) but not the left eye (OS) received eye drops. In a further study, one drop of the formulation #340 (40 μL containing 880 μg rapamycin) was administered on day zero.

Structure (SMILES): CO[C@H]1C[C@@H]2CC[C@@H](C)[C@@](O)(O2)C(=O)C(=O)N2CCCC[C@H]2C(=O)O[C@H]([C@H](C)C[C@@H]2CC[C@@H](O)[C@H](OC)C2)CC(=O)[C@H](C)/C=C(\C)[C@@H](O)[C@@H](OC)C(=O)[C@H](C)C[C@H](C)/C=C/C=C/C=C/1C [Rapamycin, rapamycin]
- concentration at 1 day (sclera, 2 drops (40 μl per drop) on one eye (right eye, OD), Group II (two drops once a day on one eye, one time), OD, day 1, n = 1, read-out: Rapamycin level, sclera): 421 ng/g
- concentration at 2 day (sclera, 2 drops (40 μl per drop) on one eye (right eye, OD), Group II (two drops once a day on one eye, one time), OD, day 2, n = 1, read-out: Rapamycin level, sclera): 1350 ng/g
- concentration at 3 day (sclera, 2 drops (40 μl per drop) on one eye (right eye, OD), Group II (two drops once a day on one eye, one time), OD, day 3, n = 1, read-out: Rapamycin level, sclera): 541 ng/g
- concentration at 1 day (sclera, 2 drops (40 μl per drop) on one eye (right eye, OD), Group II (two drops once a day on one eye, one time), OS, day 1, n = 1, read-out: Rapamycin level, sclera): 34.2 ng/g
- concentration at 2 day (sclera, 2 drops (40 μl per drop) on one eye (right eye, OD), Group II (two drops once a day on one eye, one time), OS, day 2, n = 1, read-out: Rapamycin level, sclera): 144 ng/g
- concentration at 3 day (sclera, 2 drops (40 μl per drop) on one eye (right eye, OD), Group II (two drops once a day on one eye, one time), OS, day 3, n = 1, read-out: Rapamycin level, sclera): 104 ng/g
- concentration at 8 day (sclera, 2 drops (40 μl per drop) per eye, both eyes, day 8, n = 2, read-out: Rapamycin level, sclera): 895 ng/g
- concentration at 10 day (sclera, 2 drops (40 μl per drop) per eye, both eyes, day 10, n = 2, read-out: Rapamycin level, sclera): 613 ng/g
- concentration at 12 day (sclera, 2 drops (40 μl per drop) per eye, both eyes, day 12, n = 2, read-out: Rapamycin level, sclera): 131 ng/g
- concentration at 14 day (sclera, 2 drops (40 μl per drop) per eye, both eyes, day 14, n = 2, read-out: Rapamycin level, sclera): 420 ng/g
- concentration at 1 day (sclera, 2 drops (40 μl per drop) per eye, both eyes, twice a day, Group I (two drops twice a day on both eyes, one time), day 1, n = 2, read-out: Rapamycin level, sclera): 90.8 ng/g
- concentration at 2 day (sclera, 2 drops (40 μl per drop) per eye, both eyes, twice a day, Group I (two drops twice a day on both eyes, one time), day 2, n = 2, read-out: Rapamycin level, sclera): 751 ng/g
- concentration at 3 day (sclera, 2 drops (40 μl per drop) per eye, both eyes, twice a day, Group I (two drops twice a day on both eyes, one time), day 3, n = 2, read-out: Rapamycin level, sclera): 351 ng/g
- concentration at 1 day (vitreous, 2 drops (40 μl per drop) on one eye (right eye, OD), Group II (two drops once a day on one eye, one time), OD, day 1, n = 1, read-out: Rapamycin level, vitreous): 2.06 ng/mL
- concentration at 2 day (vitreous, 2 drops (40 μl per drop) on one eye (right eye, OD), Group II (two drops once a day on one eye, one time), OD, day 2, n = 1, read-out: Rapamycin level, vitreous): 5.01 ng/mL
- concentration at 3 day (vitreous, 2 drops (40 μl per drop) on one eye (right eye, OD), Group II (two drops once a day on one eye, one time), OD, day 3, n = 1, read-out: Rapamycin level, vitreous): 3.96 ng/mL
- concentration at 1 day (vitreous, 2 drops (40 μl per drop) on one eye (right eye, OD), Group II (two drops once a day on one eye, one time), OS, day 1, n = 1, read-out: Rapamycin level, vitreous): 1 ng/mL
- concentration at 2 day (vitreous, 2 drops (40 μl per drop) on one eye (right eye, OD), Group II (two drops once a day on one eye, one time), OS, day 2, n = 1, read-out: Rapamycin level, vitreous): 2.95 ng/mL
- concentration at 3 day (vitreous, 2 drops (40 μl per drop) on one eye (right eye, OD), Group II (two drops once a day on one eye, one time), OS, day 3, n = 1, read-out: Rapamycin level, vitreous): 4 ng/mL
- concentration at 8 day (vitreous, 2 drops (40 μl per drop) per eye, both eyes, day 8, n = 2, read-out: Rapamycin level, vitreous): 19.7 ng/mL
- concentration at 10 day (vitreous, 2 drops (40 μl per drop) per eye, both eyes, day 10, n = 2, read-out: Rapamycin level, vitreous): 7.9 ng/mL
- concentration at 12 day (vitreous, 2 drops (40 μl per drop) per eye, both eyes, day 12, n = 2, read-out: Rapamycin level, vitreous): 1.46 ng/mL
- concentration at 14 day (vitreous, 2 drops (40 μl per drop) per eye, both eyes, day 14, n = 2, read-out: Rapamycin level, vitreous): 5.66 ng/mL
- concentration at 1 day (vitreous, 2 drops (40 μl per drop) per eye, both eyes, twice a day, Group I (two drops twice a day on both eyes, one time), day 1, n = 2, read-out: Rapamycin level, vitreous): 1.24 ng/mL
- concentration at 2 day (vitreous, 2 drops (40 μl per drop) per eye, both eyes, twice a day, Group I (two drops twice a day on both eyes, one time), day 2, n = 2, read-out: Rapamycin level, vitreous): 5.41 ng/mL
- concentration at 3 day (vitreous, 2 drops (40 μl per drop) per eye, both eyes, twice a day, Group I (two drops twice a day on both eyes, one time), day 3, n = 2, read-out: Rapamycin level, vitreous): 3.03 ng/mL

Reference: patent US8663639B2, “Formulations for treating ocular diseases and conditions” (Santen Pharmaceutical Co., Ltd., priority 2005, dated 2014)
